Like-named read-outs stand apart in the source and are kept apart here.
Key:
[1] = Pharmacokinetics after oral administration to rats with jugular vein and portal vein catheters; type: in vivo, Male Sprague-Dawley rats; conditions: rat
Procedure: Pharmacokinetic studies were conducted in male Sprague-Dawley rats, with an approximate weight of 250-300 g at dose initiation. All animals were instrumented with a jugular vein catheter (JVC) and a portal vein catheter (PVC) to facilitate blood collections. Jugular and Portal vein catheterizations were conducted at Charles River Laboratories under protocols approved by the Institutional Animal Care and Use Committee (IACUC) of Charles River Lab (Approved PO 4122010).
Animals were anaesthetized with ketamine and xylazine administered intraperitoneally and provided buprenorphine subcutaneously. The skin overlying the scapula and over the right jugular vein were shaved and skin aseptically prepared. A 1.1.5 cm cranial-caudal incision, followed by blunt dissection was performed to expose the jugular vein, which was then catheterized using either a PU or blended catheter. After fixation of the catheter, it was flushed with sterile saline to verify patency. The distal end of the catheter was then tunneled subcutaneously to the dorsal scapular region where it was exteriorized. Catheter patency was verified again. The catheter was then locked with 50% heparinized dextrose solution. The exteriorized end of the catheter was sealed with a stainless steel plug. The skin incision was then closed with wound clips.
Animals were anaesthetized with ketamine and xylazine administered intraperitoneally. A mid-line incision 1-2 cm was made in the abdominal cavity and the portal vein was detached near the liver. To prevent bleeding, the portal vein was ligated temporarily as the catheter was inserted. The cathether (3.5 Fr polyurethane tube, Access™ technologies Inc.) was inserted immediately and fixed by a purse-string suture on the portal vein. The time to reperfusion was about 1 min after intercepted blood flow. This method for insertion of catheter can avoid the occlusion of the vessel. In addition, a catheter with trumpet-shaped opening was used to prevent the catheter from slipping out of the vessel with minimizing the effect of blood flow. Another end of the catheter was passed subcutaneously to the dorsal back of the neck and the laparotomy was closed in two layers, with a 4/0 silk blade to the muscle, and a surgical clip to close the skin.
Male Sprague-Dawley rats instrumented with jugular vein catheter and portal vein catheter were separated into groups of 4. The test compound was administered by oral gavage at dose of 30 mg/kg in a vehicle consisting of Tween (specifically Tween 80), Peceol, PEG400 (at a ratio of 40:50:10) along with 0.2% tocopherol and emulsified in water, with a water to oil ratio of 66:1 (the dose concentration was 6 mg/mL and the dose volume was 5 mL/kg). Whole blood (0.3 mL) was collected at both the jugular and portal vein at the following time points: 10, 20, 40 min, 1, 1.5, 2 and 4 hours post-dose. Blood samples were placed into tubes containing sodium heparin anticoagulant. Each whole blood sample was placed on ice until sample could be centrifuged at 2200×g at 5° C.±3° C. for 10 min to isolate plasma.
The amount of the various metabolites and parent compound present in the plasma samples were then analyzed by LC/MS/MS using an Agilent 6410 Triple Quadrupole with an ESI interface. The column used was a Phenomenex Gemini C6 Phenyl 110A 50×4.6 mm, 1.8 μM. The mobile phase used was water and methanol, each containing 0.1% formic acid. Data was further analyzed by WinNolin Software. For a given test compound, the following compounds were quantitated from the collected plasma samples: 1) test compound, 2) niacin linker, 3) linker-EPA, 4) niacin and 5) nicotinuric acid.
In order to quantitate each of these compounds in plasma, standard curves in blank plasma were generated using the appropriate internal standard (the final concentration range used were 8333 ng/mL, 2083 ng/mL, 521 ng/mL, 130.2 ng/mL, 32.5 ng/mL, 8.1 ng/mL, 2.0 ng/mL and 0.5 ng/mL). […]

[2] = Compound hydrolysis and tissue distribution: test compound and metabolites in liver after oral dosing for 3.5 days; type: in vivo, Male Sprague-Dawley rats; conditions: for concentration at 4 h / Amount of Analyte: Niacin-linker Metabolite / Amount of Analyte: Nicotinuric Acid / Amount of Analyte: Linker-Fatty Acid Metabolite: male, Sprague-Dawley; for concentration at 4 h: liver homogenate, rat liver, 100 mg/kg oral gavage every 12 hours, 7 doses, 4 hours after last dose, read-out: Amount of Analyte: Intact Test Compound; for Amount of Analyte: Niacin-linker Metabolite / Amount of Analyte: Nicotinuric Acid / Amount of Analyte: Linker-Fatty Acid Metabolite: 4 h
Procedure: The amount of test compound and its metabolites in the liver provides information on distribution of such compounds within the rat, as well as information on stability of the test compound, such as resistance of the test compound to hydrolytic degradation. […] A test compound was administered to a single group of Male Sprague-Dawley rats. Each group contained 6 animals. […] Two additional animals were administered vehicle alone as controls. Animals were dosed every 12 hours for 3.5 days (7 doses total). Rats were fasted overnight after the PM dose on day 3 of study. On day 4 the rats were euthanized 4 hours after the last dose. Vehicle treated rats were also fasted prior to collection of tissue samples on day 4. At 4 hours after last dose, the livers were excised, rinsed and weight of each tissue recorded. Livers were snap frozen in liquid nitrogen and stored in 50 mL polypropylene conical centrifuge tubes at −80° C. Liver tissue was homogenized in PBS at a volume of 2 mL per gram of tissue. The amount of test compound and various metabolites of the test compound present in the liver homogenates were analyzed by LC/MS/MS as done in the previous example. […] In order to quantitate each of these compounds in the homogenates, standard curves in blank liver homogenates were generated using the appropriate internal standard.

[3] = male, Sprague-Dawley, in vivo, po, 30 mg/kg
[4] = male, Sprague-Dawley, in vivo, po, 30 mg/kg, Peripheral AUClast, parent compound
[5] = male, Sprague-Dawley, in vivo, po, 30 mg/kg, Peripheral Cmax, parent compound
[6] = male, Sprague-Dawley, in vivo, po, 30 mg/kg, Portal AUClast, parent compound
[7] = male, Sprague-Dawley, in vivo, po, 30 mg/kg, Portal Cmax, parent compound

Structure (SMILES) | ratio of Portal AUClast of Parent compound to Portal AUClast of Niacin-linker metabolite [1, 3] | AUC(0-t) [1, 4] | Cmax [1, 5] | AUC(0-t) [1, 6] | Cmax [1, 7] | Amount of Analyte: Niacin-linker Metabolite ([2]; rat, in vivo, po, 100 mg/kg) | also measured
CC/C=C\C/C=C\C/C=C\C/C=C\C/C=C\C/C=C\CCC(=O)NCCNC(=O)c1cccnc1 [Compound I-7, N-(2-(4Z,7Z,10Z,13Z,16Z,19Z)-docosa-4,7,10,13,16,19-hexaenamidoethyl)nicotinamide, reference compound] |  |  |  |  |  |  | Cmax ([1]; male, Sprague-Dawley, jugular vein plasma, po, 30 mg/kg, 30 mg/kg oral gavage, jugular vein plasma, read-out: Peripheral Cmax, parent compound): 238 ng/mL; AUC(0-t) ([1]; male, Sprague-Dawley, jugular vein plasma, po, 30 mg/kg, 30 mg/kg oral gavage, jugular vein plasma, t=10 min to 4 hrs, read-out: Peripheral AUClast, parent compound): 353 ng·h/mL; Cmax ([1]; male, Sprague-Dawley, portal vein plasma, po, 30 mg/kg, 30 mg/kg oral gavage, portal vein plasma, read-out: Portal Cmax, parent compound): 1850 ng/mL; AUC(0-t) ([1]; male, Sprague-Dawley, portal vein plasma, po, 30 mg/kg, 30 mg/kg oral gavage, portal vein plasma, t=10 min to 4 hrs, read-out: Portal AUClast, parent compound): 1460 ng·h/mL; portal concentration of the parent compound compared to compounds I-15 and I-24 ([1]; 30 mg/kg oral gavage): lower; concentration at 4 h [2]: 6.7 ng/g
CC/C=C\C/C=C\C/C=C\C/C=C\C/C=C\CCCC(=O)NCCNC(=O)c1cccnc1 [Compound I-8, N-(2-(5Z,8Z,11Z,14Z,17Z)-eicosa-5,8,11,14,17-pentaenamidoethyl)nicotinamide, reference compound] | 0.06 | 81 ng·h/mL | 78 ng/mL | 662 ng·h/mL | 756 ng/mL | 2351 nanograms of analyte per gram of tissue homogenate | Amount of Analyte: Nicotinuric Acid ([2]; rat, in vivo, po, 100 mg/kg): 785 nanograms of analyte per gram of tissue homogenate
CC/C=C\C/C=C\C/C=C\C/C=C\C/C=C\CCCC(=O)N1CCN(C(=O)c2cccnc2)CC1 [Compound I-13, (5Z,8Z,11Z,14Z,17Z)-1-(4-nicotinoylpiperazin-1-yl)icosa-5,8,11,14,17-pentaen-1-one] | 0.83 | 142 ng·h/mL | 80 ng/mL | 3560 ng·h/mL | 6070 ng/mL | 2023 nanograms of analyte per gram of tissue homogenate | Amount of Analyte: Linker-Fatty Acid Metabolite ([2]; rat, in vivo, po, 100 mg/kg): 15782 nanograms of analyte per gram of tissue homogenate; Amount of Analyte: Nicotinuric Acid ([2]; rat, in vivo, po, 100 mg/kg): 15.1 nanograms of analyte per gram of tissue homogenate
CC/C=C\C/C=C\C/C=C\C/C=C\C/C=C\CCCC(=O)N(C)CCNC(=O)c1cccnc1 [Compound I-15, N-(2-((5Z,8Z,11Z,14Z,17Z)—N-methylicosa-5,8,11,14,17-pentaenamido)ethyl)nicotinamide] |  | 767 ng·h/mL | 360 ng/mL | 5060 ng·h/mL | 4520 ng/mL |  | concentration at 4 h [2]: 459 ng/g
CC/C=C\C/C=C\C/C=C\C/C=C\C/C=C\CCCC(=O)N[C@H]1CCN(C(=O)c2cccnc2)C1 [Compound I-23, (5Z,8Z,11Z,14Z,17Z)—N—((S)-1-nicotinoylpyrrolidin-3-yl)icosa-5,8,11,14,17-pentaenamide] | 0.17 | 60 ng·h/mL | 68 ng/mL | 1440 ng·h/mL | 2600 ng/mL | 2290 nanograms of analyte per gram of tissue homogenate | 
CC/C=C\C/C=C\C/C=C\C/C=C\C/C=C\CCCC(=O)N1CC[C@H](NC(=O)c2cccnc2)C1 [Compound I-24, N—((S)-1-((5Z,8Z,11Z,14Z,17Z)-icosa-5,8,11,14,17-pentaenoyl)pyrrolidin-3-yl)nicotinamide] | 41 | 964 ng·h/mL | 565 ng/mL | 6640 ng·h/mL | 5320 ng/mL | 2826 nanograms of analyte per gram of tissue homogenate | Amount of Analyte: Linker-Fatty Acid Metabolite ([2]; rat, in vivo, po, 100 mg/kg): 77.2 nanograms of analyte per gram of tissue homogenate; amount of intact test compound present in the liver compared to other compounds of Table 9 ([2]; rat, in vivo, po, 100 mg/kg): significantly larger
CC/C=C\C/C=C\C/C=C\C/C=C\C/C=C\CCCC(=O)N[C@H]1CC[C@H](CNC(=O)c2cccnc2)CC1 [Compound I-41, N-(((1R,4R)-4-((5Z,8Z,11Z,14Z,17Z)-icosa-5,8,11,14,17-pentaenamido)cyclohexyl)methyl)nicotinamide] |  |  |  |  |  |  | Peripheral AUClast, parent compound ([1]; in vivo, po, 30 mg/kg): 218 ng·h/mL; Portal AUClast, parent compound ([1]; in vivo, po, 30 mg/kg): 2,507 hr*ng/mL; ratio of Portal AUClast of Parent compound to Portal AUClast of Niacin-linker metabolite ([1]; in vivo, po, 30 mg/kg): 1.3
